Data reported in ChEMBL document CHEMBL1155868, “N-Benzyl-N-(pyrrolidin-3-yl)carboxamides as a new class of selective dual serotonin/noradrenaline reuptake inhibitors” (Bioorg Med Chem Lett, 2008).

Key:
[1] = target: Sodium-dependent serotonin transporter (Homo sapiens, UniProt P31645); assay: Inhibition of [3H]5HT reuptake at human serotonin transporter expressed in HEK293 cells by scintillation counting; format: cell-based
[2] = target: Sodium-dependent noradrenaline transporter (Homo sapiens, UniProt P23975)
Description: Inhibition of [3H]NA reuptake in human noradrenaline transporter expressed in HEK293 cells by scintillation counting

[3] = target: Sodium-dependent dopamine transporter (Homo sapiens, UniProt Q01959); assay: Inhibition of [3H]DA reuptake at human dopamine transporter expressed in HEK293 cells by scintillation counting; format: cell-based
[4] = Volume of distribution in dog at 0.01 mg/kg, iv; format: ADME, organism-based, Canis lupus familiaris; design: dose 0.01 mg/kg, route intravenous; details: in vivo
[5] = Clearance in dog at 0.01 mg/kg, iv; format: ADME, organism-based, Canis lupus familiaris; design: dose 0.01 mg/kg, route intravenous; details: in vivo
[6] = Metabolic stability assessed as half life in dog liver microsomes; format: ADME, Canis lupus familiaris, Microsome
[7] = target: Voltage-gated inwardly rectifying potassium channel KCNH2 (Homo sapiens, UniProt Q12809); assay: Inhibition of human ERG potassium channel
[8] = in vitro; details: human, hepatocytes
Description: Intrinsic clearance in human hepatocytes assessed per million cells

[9] = target: Cytochrome P450 2C19 (Homo sapiens, UniProt P33261); assay: Inhibition of CYP2C19; format: ADME
[10] = target: Cytochrome P450 2C9 (Homo sapiens, UniProt P11712); assay: Inhibition of CYP2C9; format: ADME
[11] = target: T1, Cytochrome P450 1A2 (Homo sapiens, UniProt P05177); assay: Inhibition of CYP1A2; format: ADME
T1 sequence (P05177 whole entry): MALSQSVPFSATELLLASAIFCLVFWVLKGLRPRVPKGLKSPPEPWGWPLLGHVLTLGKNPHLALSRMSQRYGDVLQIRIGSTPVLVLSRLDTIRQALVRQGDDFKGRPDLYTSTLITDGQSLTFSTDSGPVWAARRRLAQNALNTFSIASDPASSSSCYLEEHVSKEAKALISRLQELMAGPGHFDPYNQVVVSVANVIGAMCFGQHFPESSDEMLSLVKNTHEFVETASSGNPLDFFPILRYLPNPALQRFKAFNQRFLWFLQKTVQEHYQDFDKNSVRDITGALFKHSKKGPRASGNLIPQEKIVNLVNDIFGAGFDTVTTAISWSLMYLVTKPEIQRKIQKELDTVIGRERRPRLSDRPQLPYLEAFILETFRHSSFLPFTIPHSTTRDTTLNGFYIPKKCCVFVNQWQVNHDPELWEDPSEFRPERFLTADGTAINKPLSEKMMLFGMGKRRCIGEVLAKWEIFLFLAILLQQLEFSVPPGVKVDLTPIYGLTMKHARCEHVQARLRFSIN

[12] = Distribution coefficient, log D at pH 7.4; format: physicochemical; details: octanol/water
[13] = target: Cytochrome P450 3A4 (Homo sapiens, UniProt P08684); assay: Inhibition of CYP3A4; format: ADME
[14] = Metabolic stability assessed as half life in human liver microsomes; format: ADME, Microsome
[15] = Dissociation constant, pKa of the compound; format: physicochemical
[16] = Half life in dog at 0.01 mg/kg, iv; format: ADME, organism-based, Canis lupus familiaris; design: dose 0.01 mg/kg, route intravenous; details: in vivo
[17] = Bioavailability in dog at 0.013 mg/kg, po; format: ADME, organism-based, Canis lupus familiaris; details: in vivo
[18] = Half life in dog at 0.013 mg/kg, po; format: ADME, organism-based, Canis lupus familiaris; design: dose 0.013 mg/kg, route oral; details: in vivo
[19] = target: Cytochrome P450 2D6 (Homo sapiens, UniProt P10635); assay: Inhibition of CYP2D6; format: ADME
Sequence of Cytochrome P450 2D6 (P10635 whole entry): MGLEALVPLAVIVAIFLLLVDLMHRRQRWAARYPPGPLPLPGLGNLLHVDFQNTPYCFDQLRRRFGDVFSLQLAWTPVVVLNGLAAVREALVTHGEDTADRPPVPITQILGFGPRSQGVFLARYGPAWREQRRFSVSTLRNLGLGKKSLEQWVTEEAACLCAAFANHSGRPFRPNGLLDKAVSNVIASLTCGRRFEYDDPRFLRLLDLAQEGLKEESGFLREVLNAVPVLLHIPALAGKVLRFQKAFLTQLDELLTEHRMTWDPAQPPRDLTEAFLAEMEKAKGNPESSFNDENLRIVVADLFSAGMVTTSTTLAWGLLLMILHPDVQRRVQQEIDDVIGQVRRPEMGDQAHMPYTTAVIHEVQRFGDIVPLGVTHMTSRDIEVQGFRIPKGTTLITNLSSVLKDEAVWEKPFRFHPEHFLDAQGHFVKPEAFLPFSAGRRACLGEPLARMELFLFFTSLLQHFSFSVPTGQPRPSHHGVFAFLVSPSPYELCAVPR

Sequence of Sodium-dependent serotonin transporter (P31645 whole entry): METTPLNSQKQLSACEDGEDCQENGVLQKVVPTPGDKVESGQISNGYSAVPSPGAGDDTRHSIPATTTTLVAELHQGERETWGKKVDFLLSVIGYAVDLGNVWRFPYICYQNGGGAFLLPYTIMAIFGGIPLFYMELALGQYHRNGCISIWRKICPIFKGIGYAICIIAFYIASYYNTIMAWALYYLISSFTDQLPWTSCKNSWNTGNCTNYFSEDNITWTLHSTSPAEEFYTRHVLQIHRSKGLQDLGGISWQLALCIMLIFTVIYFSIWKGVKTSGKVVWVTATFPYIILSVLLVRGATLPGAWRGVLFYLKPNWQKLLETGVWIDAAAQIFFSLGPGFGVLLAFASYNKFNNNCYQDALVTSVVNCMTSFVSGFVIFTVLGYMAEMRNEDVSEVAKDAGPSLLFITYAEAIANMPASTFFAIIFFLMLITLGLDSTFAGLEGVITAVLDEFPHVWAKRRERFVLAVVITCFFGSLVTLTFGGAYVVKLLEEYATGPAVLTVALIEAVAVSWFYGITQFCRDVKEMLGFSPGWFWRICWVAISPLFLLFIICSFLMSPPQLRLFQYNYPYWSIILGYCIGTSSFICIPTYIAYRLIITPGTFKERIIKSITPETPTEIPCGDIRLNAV
Sequence of Sodium-dependent dopamine transporter (Q01959 whole entry): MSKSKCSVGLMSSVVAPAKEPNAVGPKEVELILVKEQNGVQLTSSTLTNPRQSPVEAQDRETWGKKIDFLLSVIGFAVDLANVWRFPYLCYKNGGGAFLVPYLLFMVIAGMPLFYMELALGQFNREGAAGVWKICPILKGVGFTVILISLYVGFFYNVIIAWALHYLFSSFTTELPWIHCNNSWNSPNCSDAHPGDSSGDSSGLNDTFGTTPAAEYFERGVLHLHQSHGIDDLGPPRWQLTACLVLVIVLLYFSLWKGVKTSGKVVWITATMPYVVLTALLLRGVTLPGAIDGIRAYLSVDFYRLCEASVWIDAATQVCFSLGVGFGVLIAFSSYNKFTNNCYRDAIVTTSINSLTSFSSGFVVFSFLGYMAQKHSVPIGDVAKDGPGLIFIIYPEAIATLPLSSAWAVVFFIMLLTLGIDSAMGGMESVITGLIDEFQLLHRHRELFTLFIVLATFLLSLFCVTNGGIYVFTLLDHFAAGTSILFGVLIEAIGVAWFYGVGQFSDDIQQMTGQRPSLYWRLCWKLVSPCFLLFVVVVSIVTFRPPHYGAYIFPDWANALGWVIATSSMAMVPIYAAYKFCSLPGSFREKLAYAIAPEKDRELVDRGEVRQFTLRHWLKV
Sequence of Voltage-gated inwardly rectifying potassium channel KCNH2 (Q12809 whole entry): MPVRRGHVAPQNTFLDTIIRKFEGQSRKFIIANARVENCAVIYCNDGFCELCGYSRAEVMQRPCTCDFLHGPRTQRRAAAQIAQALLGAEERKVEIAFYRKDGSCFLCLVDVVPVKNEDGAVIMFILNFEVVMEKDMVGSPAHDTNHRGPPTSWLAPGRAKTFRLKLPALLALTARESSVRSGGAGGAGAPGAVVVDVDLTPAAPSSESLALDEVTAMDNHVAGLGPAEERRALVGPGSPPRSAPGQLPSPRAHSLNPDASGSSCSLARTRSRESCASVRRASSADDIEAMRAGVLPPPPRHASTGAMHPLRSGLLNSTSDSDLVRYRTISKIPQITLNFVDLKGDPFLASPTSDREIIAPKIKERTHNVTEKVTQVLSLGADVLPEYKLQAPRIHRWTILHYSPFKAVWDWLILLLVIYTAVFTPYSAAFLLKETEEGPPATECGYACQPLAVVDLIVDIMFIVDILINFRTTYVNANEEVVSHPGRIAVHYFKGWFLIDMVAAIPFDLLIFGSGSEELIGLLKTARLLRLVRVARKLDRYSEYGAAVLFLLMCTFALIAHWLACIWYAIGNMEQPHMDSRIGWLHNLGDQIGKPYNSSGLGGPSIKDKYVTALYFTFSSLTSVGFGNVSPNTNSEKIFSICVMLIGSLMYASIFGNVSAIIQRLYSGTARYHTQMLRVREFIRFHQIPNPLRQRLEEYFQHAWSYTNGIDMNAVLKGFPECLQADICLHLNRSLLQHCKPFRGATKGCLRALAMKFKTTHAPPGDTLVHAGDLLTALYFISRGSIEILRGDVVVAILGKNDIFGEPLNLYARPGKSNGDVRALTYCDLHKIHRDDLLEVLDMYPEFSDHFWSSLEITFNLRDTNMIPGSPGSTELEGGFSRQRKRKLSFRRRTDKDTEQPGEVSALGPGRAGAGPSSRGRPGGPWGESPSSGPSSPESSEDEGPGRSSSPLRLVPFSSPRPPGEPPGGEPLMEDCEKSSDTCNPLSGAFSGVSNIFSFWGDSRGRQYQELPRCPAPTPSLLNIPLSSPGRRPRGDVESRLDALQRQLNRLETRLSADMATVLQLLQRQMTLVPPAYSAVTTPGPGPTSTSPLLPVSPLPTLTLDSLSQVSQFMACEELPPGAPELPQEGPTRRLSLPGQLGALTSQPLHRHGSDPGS
Sequence of Sodium-dependent noradrenaline transporter (P23975 whole entry): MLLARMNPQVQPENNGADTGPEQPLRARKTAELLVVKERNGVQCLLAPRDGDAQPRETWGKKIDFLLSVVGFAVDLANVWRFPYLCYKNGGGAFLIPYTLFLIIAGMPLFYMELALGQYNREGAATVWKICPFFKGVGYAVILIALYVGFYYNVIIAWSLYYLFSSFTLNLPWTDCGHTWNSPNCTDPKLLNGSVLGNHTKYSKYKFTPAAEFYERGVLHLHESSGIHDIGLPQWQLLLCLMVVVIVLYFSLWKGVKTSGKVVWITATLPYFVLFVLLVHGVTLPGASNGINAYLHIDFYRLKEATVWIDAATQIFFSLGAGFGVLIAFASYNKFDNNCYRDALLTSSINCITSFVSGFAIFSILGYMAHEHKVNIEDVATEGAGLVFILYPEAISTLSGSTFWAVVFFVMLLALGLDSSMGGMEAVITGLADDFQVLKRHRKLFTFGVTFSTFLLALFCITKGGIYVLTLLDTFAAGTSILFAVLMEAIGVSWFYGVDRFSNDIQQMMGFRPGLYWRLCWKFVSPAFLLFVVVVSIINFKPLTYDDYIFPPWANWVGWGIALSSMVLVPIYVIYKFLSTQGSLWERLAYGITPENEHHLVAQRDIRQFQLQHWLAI
Sequence of Cytochrome P450 2C19 (P33261 whole entry): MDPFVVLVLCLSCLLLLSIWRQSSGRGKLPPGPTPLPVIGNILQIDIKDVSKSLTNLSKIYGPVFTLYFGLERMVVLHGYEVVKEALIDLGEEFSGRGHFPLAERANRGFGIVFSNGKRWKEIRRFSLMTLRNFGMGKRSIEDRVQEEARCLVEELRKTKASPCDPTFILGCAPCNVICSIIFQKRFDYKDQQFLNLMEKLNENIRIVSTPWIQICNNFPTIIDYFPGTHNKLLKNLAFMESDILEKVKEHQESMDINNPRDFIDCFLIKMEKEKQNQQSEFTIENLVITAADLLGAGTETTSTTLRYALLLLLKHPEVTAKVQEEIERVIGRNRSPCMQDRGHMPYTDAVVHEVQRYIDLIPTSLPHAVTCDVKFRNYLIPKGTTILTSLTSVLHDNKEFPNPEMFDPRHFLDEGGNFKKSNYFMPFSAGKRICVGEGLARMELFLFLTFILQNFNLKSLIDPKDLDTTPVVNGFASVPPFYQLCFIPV
Sequence of Cytochrome P450 2C9 (P11712 whole entry): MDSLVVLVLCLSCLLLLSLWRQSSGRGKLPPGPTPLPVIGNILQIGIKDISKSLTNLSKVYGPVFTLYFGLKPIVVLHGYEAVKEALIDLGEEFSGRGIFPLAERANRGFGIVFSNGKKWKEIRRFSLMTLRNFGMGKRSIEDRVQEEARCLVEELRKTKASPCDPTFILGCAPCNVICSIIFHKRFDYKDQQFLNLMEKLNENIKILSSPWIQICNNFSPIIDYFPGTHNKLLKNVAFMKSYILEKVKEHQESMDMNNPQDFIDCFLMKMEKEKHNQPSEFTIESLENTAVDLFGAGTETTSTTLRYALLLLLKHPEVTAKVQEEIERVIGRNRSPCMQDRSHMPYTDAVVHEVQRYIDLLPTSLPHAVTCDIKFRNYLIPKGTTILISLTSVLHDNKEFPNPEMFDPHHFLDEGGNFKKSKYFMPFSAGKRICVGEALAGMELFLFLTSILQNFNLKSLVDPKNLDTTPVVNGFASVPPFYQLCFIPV
Sequence of Cytochrome P450 3A4 (P08684 whole entry): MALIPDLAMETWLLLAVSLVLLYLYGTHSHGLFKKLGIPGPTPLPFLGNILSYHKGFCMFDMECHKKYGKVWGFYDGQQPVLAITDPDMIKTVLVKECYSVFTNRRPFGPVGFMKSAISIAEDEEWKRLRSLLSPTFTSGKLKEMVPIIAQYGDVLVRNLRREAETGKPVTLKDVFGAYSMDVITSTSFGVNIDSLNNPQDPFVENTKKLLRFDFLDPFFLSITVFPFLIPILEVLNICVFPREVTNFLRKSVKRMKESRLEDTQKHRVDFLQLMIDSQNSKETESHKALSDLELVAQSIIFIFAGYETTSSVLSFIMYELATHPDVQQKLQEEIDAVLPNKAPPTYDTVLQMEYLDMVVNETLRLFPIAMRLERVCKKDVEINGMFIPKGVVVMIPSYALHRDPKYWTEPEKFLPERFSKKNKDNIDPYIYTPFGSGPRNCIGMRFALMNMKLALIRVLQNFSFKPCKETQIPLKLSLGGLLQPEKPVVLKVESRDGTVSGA

SMILES	IC50 [1]	IC50 [2]	further results
CC(C)CC(=O)N(Cc1cccc(Cl)c1Cl)[C@H]1CCNC1	17 nM	62 nM	–
CC(C)C(=O)N(Cc1cccc(Cl)c1Cl)[C@@H]1CCNC1	5 nM	–	IC50 [3]: 1120 nM
O=C(c1ccccc1)N(Cc1ccc(Cl)cc1Cl)[C@H]1CCNC1	195 nM	94 nM	–
CC(C)C(=O)N(Cc1ccccc1-c1ccccc1)[C@H]1CCNC1	> 400 nM	14 nM	–
CC(C)C(=O)N(Cc1cccc(Cl)c1Cl)[C@H]1CCNC1	–	–	Vd [4]: 0.5 L/kg; clearance [5]: 1.1 mL/min/kg; half-life [6]: 0.583 h; IC50 [7]: 24700 nM; hepatocyte CLint [8]: 2.7 µL/min/1e6 cells; IC50 [3]: 1270 nM; Activity [9]: Not Active; Activity [10]: Not Active; Activity [11]: Not Active; logD [12]: 0.8; IC50 [13]: 17900 nM; half-life [14]: > 2 h; pKa [15]: 9.4; half-life [16]: 5.7 h; bioavailability [17]: 91%; half-life [18]: 5.7 h; IC50 [19]: 27100 nM
CC(C)C(=O)N(Cc1ccc(Cl)c(Cl)c1Cl)[C@H]1CCNC1	5 nM	16 nM	IC50 [7]: > 6870 nM; hepatocyte CLint [8]: 8.8 µL/min/1e6 cells; IC50 [3]: 5870 nM; logD [12]: 1.3; half-life [14]: > 2 h; IC50 [19]: 17600 nM
CC(C)C(=O)N(Cc1cc(Cl)cc(Cl)c1Cl)[C@H]1CCNC1	44 nM	29 nM	IC50 [3]: 21600 nM
CC(C)C(=O)N(Cc1ccc(C(F)(F)F)cc1F)[C@H]1CCNC1	24 nM	> 400 nM	–
CC(C)C(=O)N(Cc1ccc(F)cc1F)[C@H]1CCNC1	> 400 nM	> 400 nM	–
CCCCC(=O)N(Cc1ccc(Cl)cc1Cl)[C@H]1CCNC1	33 nM	70 nM	–
O=C(C1CCOCC1)N(Cc1cccc(Cl)c1Cl)[C@H]1CCNC1	123 nM	300 nM	–
CC(C)C(=O)N(Cc1ccccc1Cl)[C@H]1CCNC1	91 nM	114 nM	–
CC(C)C(=O)N(Cc1ccc(F)cc1Cl)[C@H]1CCNC1	161 nM	98 nM	–

Now from value to molecule, other results behind:

IC50 [1]	IC50 [2]	SMILES	further results
26 nM	> 322 nM	CC(C)(C)C(=O)N(Cc1cccc(Cl)c1Cl)[C@H]1CCNC1	–
41 nM	92 nM	CC(C)(C)C(=O)N(Cc1ccc(Cl)cc1Cl)[C@H]1CCNC1	–
72 nM	31 nM	CCCC(=O)N(Cc1ccc(Cl)cc1Cl)[C@H]1CCNC1	–
27 nM	39 nM	CC(C)(C)CC(=O)N(Cc1ccc(Cl)cc1Cl)[C@H]1CCNC1	IC50 [3]: 10200 nM
93 nM	31 nM	CC(C)CC(=O)N(Cc1ccc(Cl)cc1Cl)[C@H]1CCNC1	–
38 nM	25 nM	O=C(C1CC1)N(Cc1ccc(Cl)cc1Cl)[C@H]1CCNC1	–
25 nM	60 nM	CCC(=O)N(Cc1ccc(Cl)cc1Cl)[C@H]1CCNC1	–
13 nM	28 nM	CC(C)C(=O)N(Cc1ccc(Cl)cc1Cl)[C@H]1CCNC1	IC50 [7]: 40200 nM; hepatocyte CLint [8]: 4.8 µL/min/1e6 cells; IC50 [3]: > 40000 nM; logD [12]: 0.8; half-life [14]: > 2 h; IC50 [19]: 21800 nM
41 nM	64 nM	O=C(C1CCC1)N(Cc1ccc(Cl)cc1Cl)[C@H]1CCNC1	–
